# Measurements published in publication PMC11768839 (Viruses, 2024).
# Assays:
# [1] = tested on: influenza PR8; assay type: cell-based, Influenza A virus PR8
# [2] = tested on: HCoV-229E
compound,measurement,setting,value
"O=[N+]([O-])c1ccc(Nc2ccc(Cl)c(C(F)(F)F)c2)c2nonc12 [Compound 5342191, N-[4-chloro-3-(trifluoromethyl)phenyl]-7-nitro-2,1,3-benzoxadiazol-4-amine]",sensitivity of selected influenza PR8 virus to EC90 dose,[1],remained sensitive
same,sensitivity of selected HCoV-229E virus to EC90 dose,[2],remained sensitive
